The conditions of data set [1]: Phase I clinical evaluation; cited from earlier work.
Data set [2] concerns SKBR3 cells (HER2 expressing cells). Briefly: CellTiter-Glo cell viability assay, SKBR3. It counts as cell-based. The following applies: PBD compounds, 72 h incubation. On the procedure:
(§1) PBD compounds and conjugates thereof were evaluated for their antiproliferation properties in tumor cell lines in vitro using CellTiter-Glo® (Promega Corp). Cells were plated in black walled 96-well plate and allowed to adhere overnight at 37° C. in a humidified atmosphere of 5% CO2. BT474, SKBR3, NCI-N87 cells (HER2 expressing cells), JIMT1 cells (HER2 medium expression level cells) and MCF7 cells (HER2 low expressing levels cells) and were plated at a density of 5,000 cells per well. The next day the medium was replaced with 50 μL fresh medium and 50 μL of 2× stocks of PBD compounds or antibody-PBD conjugate were added to appropriate wells, mixed and incubated for 72 h. CellTiter-Glo® reagent was added to the wells at room temperature and the luminescent signal was measured after 10 min using a SpectraMax M5 plate reader (Molecular Devices). Dose response curves were generated using SoftMax Pro software. IC50 values were determined from four-parameter curve fitting.
(In general: Cellular ATP, detected with luciferase, serves as a proxy for viable cell number.)

The test system of data set [3] is MCF7 cells (HER2 low expressing levels cells). Briefly: CellTiter-Glo cell viability assay, MCF7. It counts as cell-based. The following applies: PBD compounds, 72 h incubation. On the procedure: as §1
The test system of data set [4] is BT474 cells (HER2 expressing cells). Briefly: CellTiter-Glo cell viability assay, BT474. The following applies: PBD compounds, 72 h incubation. It counts as cell-based. On the procedure: as §1
Data set [5] has as its system JIMT1 cells (HER2 medium expression level cells). Briefly: CellTiter-Glo cell viability assay, JIMT1. The data set is classed as cell-based. The conditions noted are these: PBD compounds, 72 h incubation. On the procedure: as §1
Data set [6] deals with NCI-N87 cells (HER2 expressing cells). In words: CellTiter-Glo cell viability assay, NCI-N87. The following applies: PBD compounds, 72 h incubation. It counts as cell-based. On the procedure:
as §1

Data on four compounds can be found in patent publication US10143695B2 (priority 2016, dated 2018).

A word on the IC50: it is the point on the concentration scale where inhibition reaches its midpoint.

For `C=C1C[C@H]2C=Nc3cc(OCCCOc4cc5c(cc4OC)C(=O)N4CC(=C)C[C@H]4C=N5)c(OC)cc3C(=O)N2C1` [SJG-136], in data set [1], the adverse effects noted entry was “vascular leak syndrome, peripheral edema, liver toxicity and fatigue”; the maximum tolerated dose is 45 μg/m^2.
As for `C=C1C[C@H]2C=Nc3cc(OCCCC(=O)Nc4cn(C)c(C(=O)Nc5cc(C(=O)Nc6cc(C(=O)n7ccc8c(N)cccc87)n(C)c6)n(C)c5)n4)c(OC)cc3C(=O)N2C1` [Compound 11A, (S,Z)-N-(5-(5-(4-amino-1H-indole-1-carbonyl)-1-methyl-1H-pyrrol-3-ylcarbamoyl)-1-methyl-1H-pyrrol-3-yl)-4-(4-(7-methoxy-2-methylene-5-oxo-2,3,5,11a-tetrahydro-1H-benzo[e]pyrrolo[1,2-a][1,4]diazepin-8-yloxy)butanamido)-1-methyl-1H-imidazole-2-carboxamide], the IC50 in data set [2] (Homo sapiens, SK-BR-3) was found to be 0.67 nM; in data set [3] (Homo sapiens, MCF7), 14.8 nM; in data set [4] (Homo sapiens, BT-474), 4 nM; in data set [5] (Homo sapiens, JIMT-1), 11.3 nM; in data set [6] (Homo sapiens, NCI-N87) it was 1.5 nM.
On to `C=C1C[C@H]2C=Nc3cc(OCCCC(=O)Nc4cn(C)c(C(=O)Nc5cc(C(=O)Nc6cc(C(=O)Nc7ccc8[nH]ccc8c7)n(C)c6)n(C)c5)n4)c(OC)cc3C(=O)N2C1` [Compound 82, (S,Z)-N-(5-(5-(1H-indol-5-ylcarbamoyl)-1-methyl-1H-pyrrol-3-ylcarbamoyl)-1-methyl-1H-pyrrol-3-yl)-4-(4-(7-methoxy-2-methylene-5-oxo-2,3,5,11a-tetrahydro-1H-benzo[e]pyrrolo[1,2-a][1,4]diazepin-8-yloxy)butanamido)-1-methyl-1H-imidazole-2-carboxamide], for which the 50% inhibitory concentration (IC50) in data set [2] came to 3.6 nM; in data set [3], 27 nM; in data set [4] it was 32 nM; in data set [5], 10.8 nM; in data set [6], 7.9 nM.
Consider `C=C1C[C@H]2C=Nc3cc(OCCCC(=O)Nc4cn(C)c(C(=O)Nc5cc(C(=O)n6ccc7cc(N)ccc76)n(C)c5)n4)c(OC)cc3C(=O)N2C1` [Compound 12, (S,Z)-N-(5-(5-amino-1H-indole-1-carbonyl)-1-methyl-1H-pyrrol-3-yl)-4-(4-((7-methoxy-2-methylene-5-oxo-2,3,5,11a-tetrahydro-1H-benzo[e]pyrrolo[1,2-a][1,4]diazepin-8-yl)oxy)butanamido)-1-methyl-1H-imidazole-2-carboxamide], for which the IC50 in data set [2] (Homo sapiens, SK-BR-3) came out at 0.4 nM; in data set [3] (Homo sapiens, MCF7), 13.9 nM; in data set [4] (Homo sapiens, BT-474), 2 nM; in data set [5] (Homo sapiens, JIMT-1), 4.4 nM; in data set [6] (Homo sapiens, NCI-N87) it was 7 nM.
